Reference: patent US8003686B2, “Aryl derivatives of curcumin, demethoxycurcumin, bisdemethoxycurcumin or curcuminisoxazolide and their use as animal feed additives” (DSM IP Assets B.V., priority 2005, dated 2011)

Columns and labels:
Test in all cases: Inhibition of bacterial growth in broth culture, CFU counting
Format in all cases: cell-based
[1] = system: Staphylococcus hyicus (H); settings: 1000 μM; Staphylococcus hyicus from pig gastrointestinal content; counting after 24 hours at 37° C.
Source text: (§1) The following bacteria were isolated from pig gastrointestinal content: Escherichia coli 0.94 (A), Escherichia coli 0.96 (B), Klebsiella pneumoniae (C), Salmonella typhimurium pF3127 (D), Salmonella enteritidis pF1338 (E), Enterococcus faecalis (F), Enterococcus faecium (G), Staphylococcus hyicus (H), Lactobacillus salivarius (I) and Lactobacillus acidophilus 3 (J). Their identities were confirmed by microscopic examination after gram staining and biochemical testing using the appropriate API system. Test strains were maintained in tryptic soy broth (named BTS; […] Overnight cultures of the test organisms were diluted in tryptic soy broth to the final concentration used for inoculation of the assay. Pure bacteria were counted on tryptic soy agar (Merck, Darmstadt, Germany) after aerobical incubation at 37° C. during 24 hours. […] Sterilized nutrient broth was prepared using tryptic soy broth (Merck, Darmstadt, Germany), and 4.4 ml of it was added to each test tube. 500 μl of each of the dilutions and 100 μl of bacteria, diluted to the appropriate inoculum size (2×10^4 to 10^5 CFU/ml), was added to the test tubes. […] Becton […], France). The final concentration of each derivative was […]. The tubes and the microtiter plates were incubated during 24 to 48 hours (depending of the bacteria tested) at 37° C. and under agitation. Inhibition of growth was determined by bacterial counting after 24 hours of incubation. […] All bacterial counts were realized with two replicate plates. In general, each assay was performed in two replicates. The reduction of bacterial growth was determined by subtracting the number of the bacteria of the test culture after 24 hours from the number of bacteria of the control culture. The colonies developed after incubation were counted, and the inhibitory effect was calculated according to Rico-Munoz and Davidson, J.

[2] = system: Klebsiella pneumoniae (C); settings: 1000 μM; Klebsiella pneumoniae from pig gastrointestinal content; counting after 24 hours at 37° C.
Source text: as §1

Enterococcus faecium (G) = settings: 1000 μM; Enterococcus faecium from pig gastrointestinal content; counting after 24 hours at 37° C.
Source text: as §1

[3] = system: Escherichia coli 0.96 (B); settings: 1000 μM; Escherichia coli 0.96 from pig gastrointestinal content; counting after 24 hours at 37° C.
Source text: as §1

[4] = system: Salmonella typhimurium pF3127 (D); settings: 1000 μM; Salmonella typhimurium pF3127 from pig gastrointestinal content; counting after 24 hours at 37° C.
Source text: as §1

[5] = system: Salmonella enteritidis pF1338 (E); settings: 1000 μM; Salmonella enteritidis pF1338 from pig gastrointestinal content; counting after 24 hours at 37° C.
Source text: as §1

[6] = system: Lactobacillus salivarius (I); settings: 1000 μM; Lactobacillus salivarius from pig gastrointestinal content; counting after 24 hours at 37° C.
Source text: as §1

[7] = system: Escherichia coli 0.94 (A); settings: 1000 μM; Escherichia coli 0.94 from pig gastrointestinal content; counting after 24 hours at 37° C.
Source text: as §1

[8] = system: Enterococcus faecalis (F); settings: 1000 μM; Enterococcus faecalis from pig gastrointestinal content; counting after 24 hours at 37° C.
Source text: as §1

Substance | Percentage of inhibition of growth of bacterial strain H [1] [%] | Percentage of inhibition of growth of bacterial strain C [2] [%] | Percentage of inhibition of growth of bacterial strain G (Enterococcus faecium (G)) [%] | Percentage of inhibition of growth of bacterial strain B [3] [%] | Percentage of inhibition of growth of bacterial strain D [4] [%] | Percentage of inhibition of growth of bacterial strain E [5] [%] | Percentage of inhibition of growth of bacterial strain I [6] [%] | Percentage of inhibition of growth of bacterial strain A [7] [%] | Percentage of inhibition of growth of bacterial strain F [8] [%]
Curcumin diphosphate ammonium salt [derivative 2] | 2 ± 7 | 25 ± 5 | 13 ± 6 | 47 ± 28 | 40 ± 72 | 30 ± 34 | 64 ± 50 | 35 ± 41 | 
curcumindipalmitate [Example 1] | −4 ± 42 | 12 ± 4 |  | 59 ± 17 | 33 ± 29 | 14 ± 13 | 2 | 62 ± 0.3 | 38 ± 34
